From ChEMBL document CHEMBL5370605, “Discovery of Novel Fedratinib-Based HDAC/JAK/BRD4 Triple Inhibitors with Remarkable Antitumor Activity against Triple Negative Breast Cancer” (J Med Chem, 2023) come the findings set out here.

Data set [1] can be described thus: Metabolic stability in mouse liver microsomes assessed as half life in presence of NADPH by LC-MS/MS analysis. It counts as ADME, Microsome. Background: Liver microsomes are a subcellular fraction often used to study metabolism.
A short description of data set [2]: Half life in ICR (CD-1) mouse at 10 mg/kg, iv measured for 24 hrs by LC-MS/MS analysis. Type of data set: ADME, organism-based. As to conditions: in vivo.
The nature of data set [3]: Cmax in ICR (CD-1) mouse at 10 mg/kg, iv measured for 24 hrs by LC-MS/MS analysis. It counts as ADME, organism-based. Details: time 24 hrs, dose 10 mg/kg, route iv. The note with it: in vivo.
Data set [4] can be described thus: AUC (0 to t) in ICR (CD-1) mouse at 10 mg/kg, iv measured for 24 hrs by LC-MS/MS analysis. It counts as ADME, organism-based. On the set-up: dose 10 mg/kg, time 24 hrs, route iv. As to conditions: in vivo.
Another data set concerns the target Histone deacetylase 4 (Homo sapiens, UniProt P56524). The data set can be described thus: Inhibition of HDAC4 (unknown origin) using Boc-Lys-(trifluoroacetyl)-AMC as substrate incubated for 30 mins by fluorescence based analysis.
Data set [5] addresses T1, Protein deacetylase HDAC6 (Homo sapiens, UniProt Q9UBN7).
T1 sequence (Q9UBN7 whole entry): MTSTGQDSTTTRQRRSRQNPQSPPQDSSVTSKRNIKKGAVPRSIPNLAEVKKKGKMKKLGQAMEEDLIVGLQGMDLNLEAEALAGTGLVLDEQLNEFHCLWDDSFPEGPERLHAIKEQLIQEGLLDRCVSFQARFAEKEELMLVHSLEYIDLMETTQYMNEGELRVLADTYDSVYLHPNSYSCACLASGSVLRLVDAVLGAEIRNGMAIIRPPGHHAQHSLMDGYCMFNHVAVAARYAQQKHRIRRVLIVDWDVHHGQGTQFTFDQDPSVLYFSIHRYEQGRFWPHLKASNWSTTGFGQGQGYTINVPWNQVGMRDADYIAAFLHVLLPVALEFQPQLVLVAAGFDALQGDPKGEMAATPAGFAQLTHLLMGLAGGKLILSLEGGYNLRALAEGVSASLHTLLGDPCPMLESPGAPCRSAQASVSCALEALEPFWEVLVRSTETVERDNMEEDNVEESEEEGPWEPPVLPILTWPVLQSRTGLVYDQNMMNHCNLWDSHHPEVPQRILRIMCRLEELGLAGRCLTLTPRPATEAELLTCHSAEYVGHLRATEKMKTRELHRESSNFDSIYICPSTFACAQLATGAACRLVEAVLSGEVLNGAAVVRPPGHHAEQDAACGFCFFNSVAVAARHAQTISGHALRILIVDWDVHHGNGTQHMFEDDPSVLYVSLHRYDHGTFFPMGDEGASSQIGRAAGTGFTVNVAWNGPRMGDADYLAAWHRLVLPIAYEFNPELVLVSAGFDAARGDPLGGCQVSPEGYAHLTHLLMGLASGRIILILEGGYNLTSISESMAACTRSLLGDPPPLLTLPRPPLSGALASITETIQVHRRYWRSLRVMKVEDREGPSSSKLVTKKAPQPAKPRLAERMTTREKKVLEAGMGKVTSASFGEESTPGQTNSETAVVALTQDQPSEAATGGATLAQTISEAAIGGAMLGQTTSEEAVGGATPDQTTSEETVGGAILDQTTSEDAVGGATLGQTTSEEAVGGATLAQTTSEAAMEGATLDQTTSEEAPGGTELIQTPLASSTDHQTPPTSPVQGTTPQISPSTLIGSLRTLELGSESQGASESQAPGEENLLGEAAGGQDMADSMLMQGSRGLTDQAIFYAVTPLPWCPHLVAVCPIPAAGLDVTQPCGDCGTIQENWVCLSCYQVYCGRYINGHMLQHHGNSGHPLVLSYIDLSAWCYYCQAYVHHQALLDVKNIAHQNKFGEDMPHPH
Put plainly: Inhibition of HDAC6 (unknown origin) using Boc-Lys(Ac)-AMC as substrate incubated for 30 mins by fluorescence based analysis.

Data set [6] deals with Tyrosine-protein kinase JAK2 (Homo sapiens, UniProt O60674). The data set can be described thus: Inhibition of JAK2 (unknown origin) incubated for 40 mins in presence of ATP by Kinase-glo luminescent assay. (In Kinase-Glo more light means more ATP remaining.)
Data set [7] has as its target Proto-oncogene tyrosine-protein kinase receptor Ret (Homo sapiens, UniProt P07949). The data set can be described thus: Inhibition of RET (unknown origin) incubated for 40 mins in presence of ATP by Kinase-glo luminescent assay.
The target of data set [8] is T2, Receptor-type tyrosine-protein kinase FLT3 (Homo sapiens, UniProt P36888).
T2 sequence (P36888 whole entry): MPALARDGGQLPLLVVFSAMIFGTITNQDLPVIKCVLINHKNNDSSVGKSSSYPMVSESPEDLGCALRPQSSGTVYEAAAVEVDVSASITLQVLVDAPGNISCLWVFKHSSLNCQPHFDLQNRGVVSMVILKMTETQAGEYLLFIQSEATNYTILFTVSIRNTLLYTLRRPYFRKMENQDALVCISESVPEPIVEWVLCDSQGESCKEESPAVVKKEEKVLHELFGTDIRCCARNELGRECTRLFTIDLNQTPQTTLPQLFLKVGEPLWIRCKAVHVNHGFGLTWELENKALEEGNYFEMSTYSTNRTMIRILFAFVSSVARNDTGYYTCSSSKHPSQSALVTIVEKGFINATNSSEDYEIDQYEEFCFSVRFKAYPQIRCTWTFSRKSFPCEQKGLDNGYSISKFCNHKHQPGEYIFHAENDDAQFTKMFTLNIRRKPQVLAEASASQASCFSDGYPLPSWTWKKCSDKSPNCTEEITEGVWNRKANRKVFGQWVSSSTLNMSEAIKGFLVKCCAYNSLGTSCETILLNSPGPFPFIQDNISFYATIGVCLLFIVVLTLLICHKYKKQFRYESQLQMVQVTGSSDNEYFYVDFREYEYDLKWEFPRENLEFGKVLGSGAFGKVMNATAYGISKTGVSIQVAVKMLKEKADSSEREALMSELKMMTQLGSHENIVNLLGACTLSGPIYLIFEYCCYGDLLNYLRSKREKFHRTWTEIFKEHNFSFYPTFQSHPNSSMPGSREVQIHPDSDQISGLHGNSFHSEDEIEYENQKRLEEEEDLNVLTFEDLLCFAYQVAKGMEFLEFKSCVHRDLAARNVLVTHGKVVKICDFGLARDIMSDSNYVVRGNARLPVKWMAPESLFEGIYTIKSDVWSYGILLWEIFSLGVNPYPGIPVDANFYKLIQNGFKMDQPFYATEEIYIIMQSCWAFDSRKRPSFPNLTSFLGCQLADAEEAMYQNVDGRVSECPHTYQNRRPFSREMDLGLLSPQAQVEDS
The data set can be described thus: Inhibition of FLT3 (unknown origin) incubated for 40 mins in presence of ATP by Kinase-glo luminescent assay.

Each structure is given as a SMILES string.

Usually half-life stands for the time needed for the level to fall by half in the phase considered. A word on the Cmax: it is the peak of the concentration-time curve. Broadly, the IC50 is the concentration at which inhibition is half-maximal.

Sequence of Histone deacetylase 4 (P56524 whole entry): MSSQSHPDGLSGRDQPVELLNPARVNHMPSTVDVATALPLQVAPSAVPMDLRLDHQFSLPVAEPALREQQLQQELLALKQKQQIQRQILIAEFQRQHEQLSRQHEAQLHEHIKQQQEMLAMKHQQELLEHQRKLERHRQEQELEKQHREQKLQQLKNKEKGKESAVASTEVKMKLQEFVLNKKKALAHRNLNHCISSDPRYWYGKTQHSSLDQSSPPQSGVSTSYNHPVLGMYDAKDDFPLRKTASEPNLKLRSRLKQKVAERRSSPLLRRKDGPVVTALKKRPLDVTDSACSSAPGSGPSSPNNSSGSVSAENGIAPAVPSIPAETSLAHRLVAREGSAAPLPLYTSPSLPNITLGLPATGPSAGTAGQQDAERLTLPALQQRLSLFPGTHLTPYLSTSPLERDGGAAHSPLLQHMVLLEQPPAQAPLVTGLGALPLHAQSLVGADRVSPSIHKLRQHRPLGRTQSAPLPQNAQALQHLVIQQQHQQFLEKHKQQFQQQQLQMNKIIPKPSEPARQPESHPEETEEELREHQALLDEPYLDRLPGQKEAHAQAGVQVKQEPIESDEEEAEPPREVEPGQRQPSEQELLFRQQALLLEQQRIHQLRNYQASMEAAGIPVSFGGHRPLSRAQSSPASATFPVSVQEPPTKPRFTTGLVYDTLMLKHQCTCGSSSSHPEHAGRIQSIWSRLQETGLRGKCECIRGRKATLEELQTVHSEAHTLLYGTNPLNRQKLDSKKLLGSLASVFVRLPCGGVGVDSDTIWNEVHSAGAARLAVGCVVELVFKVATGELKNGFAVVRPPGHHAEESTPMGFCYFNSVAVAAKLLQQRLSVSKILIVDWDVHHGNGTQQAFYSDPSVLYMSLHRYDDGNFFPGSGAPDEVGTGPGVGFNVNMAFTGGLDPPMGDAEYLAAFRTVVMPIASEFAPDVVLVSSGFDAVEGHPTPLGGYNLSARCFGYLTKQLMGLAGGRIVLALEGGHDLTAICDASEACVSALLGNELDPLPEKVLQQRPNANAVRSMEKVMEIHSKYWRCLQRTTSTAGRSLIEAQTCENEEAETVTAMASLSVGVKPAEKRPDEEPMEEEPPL
Sequence of Proto-oncogene tyrosine-protein kinase receptor Ret (P07949 whole entry): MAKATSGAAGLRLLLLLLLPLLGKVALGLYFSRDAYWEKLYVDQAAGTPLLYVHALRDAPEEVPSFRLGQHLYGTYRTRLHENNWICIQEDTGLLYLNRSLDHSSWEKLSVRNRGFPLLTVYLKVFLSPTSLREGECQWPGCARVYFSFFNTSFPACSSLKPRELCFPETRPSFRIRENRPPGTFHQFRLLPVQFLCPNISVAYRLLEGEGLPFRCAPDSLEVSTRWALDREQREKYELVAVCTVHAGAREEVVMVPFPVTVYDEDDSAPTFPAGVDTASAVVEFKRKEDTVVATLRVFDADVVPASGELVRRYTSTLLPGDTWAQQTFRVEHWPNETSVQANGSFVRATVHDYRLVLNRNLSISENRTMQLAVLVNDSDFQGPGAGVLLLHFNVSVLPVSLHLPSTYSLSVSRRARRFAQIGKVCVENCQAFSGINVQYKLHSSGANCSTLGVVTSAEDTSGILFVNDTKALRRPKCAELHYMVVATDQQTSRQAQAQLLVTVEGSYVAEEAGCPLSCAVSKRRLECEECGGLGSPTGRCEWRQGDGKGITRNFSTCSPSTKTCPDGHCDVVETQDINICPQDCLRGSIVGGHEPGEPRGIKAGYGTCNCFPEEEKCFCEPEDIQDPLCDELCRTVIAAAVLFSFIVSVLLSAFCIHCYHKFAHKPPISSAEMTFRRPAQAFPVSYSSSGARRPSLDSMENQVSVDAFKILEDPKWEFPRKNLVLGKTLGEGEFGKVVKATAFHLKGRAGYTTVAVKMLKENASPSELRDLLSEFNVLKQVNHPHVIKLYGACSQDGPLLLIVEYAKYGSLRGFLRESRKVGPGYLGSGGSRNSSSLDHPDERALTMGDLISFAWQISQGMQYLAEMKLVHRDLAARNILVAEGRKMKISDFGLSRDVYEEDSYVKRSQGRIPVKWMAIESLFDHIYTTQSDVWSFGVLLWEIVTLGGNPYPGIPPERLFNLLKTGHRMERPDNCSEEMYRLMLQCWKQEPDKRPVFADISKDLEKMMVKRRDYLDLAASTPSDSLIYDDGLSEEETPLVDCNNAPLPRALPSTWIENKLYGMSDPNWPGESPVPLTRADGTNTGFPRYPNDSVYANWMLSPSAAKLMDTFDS
Sequence of Tyrosine-protein kinase JAK2 (O60674 whole entry): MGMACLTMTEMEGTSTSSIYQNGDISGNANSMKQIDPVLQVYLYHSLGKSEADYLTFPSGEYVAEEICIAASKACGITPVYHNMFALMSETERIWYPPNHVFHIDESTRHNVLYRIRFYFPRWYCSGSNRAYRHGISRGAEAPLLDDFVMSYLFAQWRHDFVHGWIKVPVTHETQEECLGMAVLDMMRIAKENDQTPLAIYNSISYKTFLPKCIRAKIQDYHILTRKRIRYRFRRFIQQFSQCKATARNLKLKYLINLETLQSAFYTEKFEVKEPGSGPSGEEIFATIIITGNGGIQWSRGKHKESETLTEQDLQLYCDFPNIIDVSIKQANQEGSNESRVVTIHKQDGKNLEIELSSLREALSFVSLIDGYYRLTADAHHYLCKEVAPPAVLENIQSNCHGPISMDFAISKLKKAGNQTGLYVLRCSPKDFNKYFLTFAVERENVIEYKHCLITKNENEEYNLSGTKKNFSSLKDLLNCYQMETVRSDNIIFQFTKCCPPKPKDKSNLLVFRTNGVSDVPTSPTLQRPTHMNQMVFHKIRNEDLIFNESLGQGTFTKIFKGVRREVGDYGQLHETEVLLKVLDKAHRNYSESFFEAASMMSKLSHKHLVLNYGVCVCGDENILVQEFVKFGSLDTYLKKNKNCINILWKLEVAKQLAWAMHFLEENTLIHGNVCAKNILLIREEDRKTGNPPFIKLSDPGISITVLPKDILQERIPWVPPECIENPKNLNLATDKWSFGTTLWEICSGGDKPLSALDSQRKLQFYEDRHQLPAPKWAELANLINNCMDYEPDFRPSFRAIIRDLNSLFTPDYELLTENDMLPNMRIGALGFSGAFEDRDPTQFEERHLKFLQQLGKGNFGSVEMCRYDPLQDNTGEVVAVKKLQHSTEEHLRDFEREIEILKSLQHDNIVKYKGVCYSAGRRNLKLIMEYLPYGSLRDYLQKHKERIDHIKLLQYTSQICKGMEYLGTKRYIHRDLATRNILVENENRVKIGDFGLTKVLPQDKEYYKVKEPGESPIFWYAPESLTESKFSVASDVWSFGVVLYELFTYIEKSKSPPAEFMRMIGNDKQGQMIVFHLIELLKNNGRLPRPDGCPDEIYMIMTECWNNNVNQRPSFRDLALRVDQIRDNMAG

As to `Cc1cnc(Nc2ccc(OCCN3CCCC3)cc2)nc1Nc1ccc(C(=O)NO)cc1`, the half-life in data set [1] is 37.5 min. In addition, the t1/2 in [2] worked out at 89.4 min. In addition, the concentration in data set [3] peaked (Cmax) at 4730 ng/mL. Besides, the AUCt in data set [4] is 1951 ng·h/mL. Besides, the IC50 at Histone deacetylase 4 was more than 5000 nM; in data set [5], 270 nM; in data set [6], 1.8 nM; in [7], 47 nM; in data set [8] it was 10.9 nM.
